Data as given in ChEMBL document CHEMBL1201862, “PubChem BioAssay data set” (2004).
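1) Cells in 96-well plates. 2) Compound, 48 h, 5 concentrations. 3) Linear interpolation between surrounding doses. 4) Unreached endpoint = highest concentration. GI50 marks 50% less growth.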 Activity calls are given as the source filed them. Cut-off read from the data, not from the text of the source: active = GI50 up to about 1.1 µM and inactive = higher.

Tests used:
Assay in all cases: inhibition of tumour cell growth, NCI panel, 48 h
KM12 = system: KM12
K562 = system: K562
UO-31 = system: UO-31
SNB-75 = system: SNB-75
LOX IMVI = system: LOX IMVI
SK-MEL-28 = system: SK-MEL-28
IGROV-1 = system: IGROV-1
HOP-62 = system: HOP-62
SK-OV-3 = system: SK-OV-3
SN12C = system: SN12C
NCI-H522 = system: NCI-H522
786-0 = system: 786-0
TK-10 = system: TK-10
M14 = system: M14
MOLT-4 = system: MOLT-4
SNB-19 = system: SNB-19
PC-3 = system: PC-3
T47D = system: T47D
MDA-MB-231 = system: MDA-MB-231

Measured: GI50

COC1=C(Br)C(=O)c2nc(C)ccc2C1=O
inactive: KM12 17.7 µM | K562 8.67 µM | UO-31 18.5 µM | SNB-75 19.2 µM | LOX IMVI 8.39 µM | SK-MEL-28 18.4 µM | IGROV-1 19.6 µM | HOP-62 > 44.6 µM | SK-OV-3 19.4 µM | SN12C 15.7 µM | NCI-H522 6.97 µM | 786-0 14.1 µM | TK-10 18.4 µM | M14 15 µM | MOLT-4 2.4 µM | SNB-19 > 40.9 µM

Cc1ccc(C)c(NC(=O)CCc2nnc(S)[nH]2)c1
inactive: KM12 > 100 µM | K562 > 100 µM | UO-31 > 100 µM | SNB-75 > 100 µM | LOX IMVI > 100 µM | SK-MEL-28 > 100 µM | IGROV-1 86.7 µM | HOP-62 > 100 µM | SK-OV-3 > 100 µM | SN12C > 100 µM | NCI-H522 > 100 µM | 786-0 > 100 µM | TK-10 > 100 µM | M14 > 100 µM | MOLT-4 > 100 µM | SNB-19 > 100 µM

COc1ccc([C@@H]2OC(=O)C3C2C(=O)O[C@H]3c2ccc(OC)c(OC)c2)cc1OC (some centres undefined)
inactive: KM12 > 100 µM | K562 > 100 µM | UO-31 > 100 µM | SNB-75 81.5 µM | LOX IMVI > 100 µM | SK-MEL-28 > 100 µM | IGROV-1 > 100 µM | HOP-62 > 100 µM | SK-OV-3 > 100 µM | SN12C > 100 µM | NCI-H522 > 100 µM | 786-0 > 100 µM | TK-10 > 100 µM | M14 > 100 µM | MOLT-4 > 100 µM | SNB-19 > 100 µM

NCCCNCCSSCCCCS(=O)O
inactive: KM12 > 10 µM | K562 24.3 µM | UO-31 30.6 µM | SNB-75 30.8 µM | LOX IMVI 8.32 µM | SK-MEL-28 20.9 µM | IGROV-1 > 100 µM | HOP-62 > 100 µM | SK-OV-3 > 100 µM | SN12C 39.6 µM | NCI-H522 13.8 µM | 786-0 > 100 µM | TK-10 > 100 µM | M14 18.5 µM | MOLT-4 5.09 µM | SNB-19 > 100 µM

Cc1ccc(C)c(N2C(=O)C(=O)C(c3nc4ccccc4s3)C(=O)C2=O)c1
inactive: KM12 > 100 µM | K562 > 100 µM | UO-31 > 100 µM | SNB-75 > 100 µM | LOX IMVI > 100 µM | SK-MEL-28 > 100 µM | IGROV-1 > 100 µM | HOP-62 > 100 µM | SK-OV-3 > 100 µM | SN12C > 100 µM | NCI-H522 > 100 µM | 786-0 > 100 µM | TK-10 > 100 µM | M14 > 100 µM | MOLT-4 > 100 µM | SNB-19 > 100 µM

COc1cc(C2C(C(=O)Nc3ccc([N+](=O)[O-])cc3)=C(C)NC(C)=C2C(=O)Nc2ccc([N+](=O)[O-])cc2)ccc1O
inactive: KM12 18.7 µM | K562 13.5 µM | UO-31 19.1 µM | SNB-75 30.5 µM | LOX IMVI 14.6 µM | SK-MEL-28 4.16 µM | IGROV-1 24.9 µM | HOP-62 18.4 µM | SK-OV-3 27.9 µM | SN12C 18.4 µM | NCI-H522 15.8 µM | 786-0 29.1 µM | TK-10 18.2 µM | M14 23.9 µM | MOLT-4 19.9 µM | SNB-19 25.7 µM

C[C@]12CCC(=O)C=C1CC[C@@H]1[C@@H]2CC[C@]2(C)C(=O)/C(=C\c3ccccc3)C[C@@H]12
inactive: KM12 20.4 µM | K562 > 100 µM | PC-3 12.8 µM | UO-31 25.7 µM | SNB-75 61.1 µM | T47D 17.5 µM | LOX IMVI 21.2 µM | SK-MEL-28 > 46.8 µM | IGROV-1 51.3 µM | HOP-62 38.6 µM | SK-OV-3 72.3 µM | SN12C 15.1 µM | MDA-MB-231 > 50.8 µM | 786-0 26.1 µM | TK-10 44.7 µM | M14 22.4 µM | MOLT-4 14 µM | SNB-19 60.5 µM

S=c1oc(CCCCCCCCc2nn(CNc3ccc(Cl)cc3)c(=S)o2)nn1CNc1ccc(Cl)cc1
inactive: KM12 35.8 µM | K562 6.89 µM | PC-3 29.3 µM | UO-31 97.3 µM | SNB-75 > 100 µM | SK-MEL-28 20.3 µM | IGROV-1 > 100 µM | HOP-62 7.52 µM | SK-OV-3 > 100 µM | SN12C > 100 µM | MDA-MB-231 > 100 µM | NCI-H522 > 100 µM | 786-0 > 100 µM | TK-10 > 100 µM | M14 12 µM | MOLT-4 > 100 µM | SNB-19 > 100 µM

N#C/C(=C\c1cc2ccccc2c2ccccc12)c1ccccc1
inactive: KM12 5.98 µM | K562 3.13 µM | UO-31 22.2 µM | SNB-75 2.31 µM | LOX IMVI 9.51 µM | SK-MEL-28 24 µM | IGROV-1 11.8 µM | HOP-62 2.49 µM | SK-OV-3 6.73 µM | SN12C 9.59 µM | NCI-H522 5.83 µM | 786-0 5.43 µM | TK-10 > 29.7 µM | M14 6.05 µM | MOLT-4 7.26 µM | SNB-19 8.99 µM

COc1cc2c(cc1OC)C1c3ccccc3CCN1CCC2.[O-][Cl+3]([O-])([O-])O (centres undefined)
inactive: KM12 > 100 µM | K562 76 µM | PC-3 > 100 µM | UO-31 48.4 µM | SNB-75 > 100 µM | T47D > 100 µM | LOX IMVI > 100 µM | SK-MEL-28 > 100 µM | IGROV-1 > 100 µM | HOP-62 > 100 µM | SK-OV-3 > 100 µM | SN12C > 100 µM | MDA-MB-231 > 100 µM | 786-0 > 100 µM | TK-10 > 100 µM | M14 > 100 µM | MOLT-4 > 100 µM | SNB-19 > 100 µM

Brc1ccc(/C=N/C23CC4CC(CC(C4)C2)C3)cc1
inactive: KM12 > 100 µM | K562 > 100 µM | UO-31 > 100 µM | SNB-75 > 100 µM | LOX IMVI > 100 µM | SK-MEL-28 > 100 µM | IGROV-1 > 100 µM | HOP-62 > 100 µM | SK-OV-3 > 100 µM | SN12C > 100 µM | NCI-H522 > 100 µM | 786-0 > 100 µM | TK-10 > 100 µM | M14 > 100 µM | MOLT-4 > 100 µM | SNB-19 > 100 µM

O=C(O)Cc1c[nH]c2ccc(F)cc12
inactive: KM12 > 100 µM | K562 > 100 µM | PC-3 > 100 µM | UO-31 > 100 µM | SNB-75 > 100 µM | T47D > 100 µM | LOX IMVI > 100 µM | SK-MEL-28 > 100 µM | IGROV-1 > 100 µM | HOP-62 > 100 µM | SK-OV-3 > 100 µM | SN12C > 100 µM | MDA-MB-231 > 100 µM | 786-0 > 100 µM | TK-10 > 100 µM | M14 > 100 µM | MOLT-4 > 100 µM | SNB-19 > 100 µM
